# Calls of active or inactive are those of the source. The rule behind the calls is not given here.
# Assays:
# HeLa [1] = test: Induction of autophagy in human HeLa cells transfected with mRFP-GFP-LC3 plasmid assessed as appearance of RFP puncta clusters as aggregates in cytoplasm at 30 uM incubated for 24 hrs by DAPI staining based fluorescence confocal microscopic analysis; format: functional, cell-based
# Ca-Ski [2] = test: Antiproliferative activity against p53 deficient human Ca Ski cells assessed as inhibition of cell viability incubated for 24 hrs by CCK8 assay; format: functional, cell-based
# [3] = Toxicity in female BALB/c mouse xenografted with human HeLa cells assessed as effect on WBC level at 4 to 8 mg/kg administered every four days and measured after 26 days; format: organism-based; settings: in vivo, 624 h, dose 4-8 mg/kg, time 26 day
# Ca-Ski [4] = test: Induction of morphological changes in human Ca Ski cells assessed as increase in inflated cell appearance at 0.5 to 2 uM by microphotographic analysis; format: functional, cell-based; settings: dose 0.5-2 µM
# HeLa [5] = test: Induction of apoptosis in human HeLa cells assessed as viable cells at 0.6 uM incubated for 24 hrs by Annexin V-FITC/PI staining based flow cytometric analysis (reference value: 96.2 %); format: functional; settings: read-out: Activity
# [6] = Toxicity in female BALB/c mouse xenografted with human HeLa cells assessed as effect on AST level at 4 to 8 mg/kg administered every four days and measured after 26 days; format: organism-based; settings: in vivo, 624 h, dose 4-8 mg/kg, time 26 day
# Ca-Ski [7] = test: Effect on TRFC protein expression level in human Ca Ski cells at 0.5 uM incubated for 24 hrs by Western blot analysis; format: functional, cell-based
# C-33-A = test: Induction of morphological changes in human C-33-A cells assessed as increase in appearance of round cells at 0.3 to 1.2 uM by microphotographic analysis; format: functional, cell-based; settings: dose 0.3-1.2 µM
# HeLa [8] = test: Upregulation of autophagy pathway related gene expression in human HeLa cells at 1.2 uM incubated for 24 hrs by heat-map analysis; format: functional, cell-based
# HeLa [9] = test: Effect on cleaved PARP expression level in Bax deficient human HeLa cells at 0.6 to 1.2 uM incubated for 24 hrs by Western blot analysis; format: functional, cell-based; settings: dose 0.6-1.2 µM
# HeLa [10] = test: Effect on cleaved caspase 3 expression level in human HeLa cells at 0.3 to 1.2 uM incubated for 24 hrs by Western blot analysis; format: functional, cell-based; settings: dose 0.3-1.2 µM
# Ca-Ski [11] = test: Induction of apoptosis in human Ca Ski cells assessed as necrotic cells at 0.5 uM preincubated with Z-VAD-FMK for 1 hrs followed by compound addition and measured after 24 hrs by Annexin V-FITC/PI staining based flow cytometric analysis (reference value: 1.54 %); format: functional
# HeLa [12] = test: Effect on caspase 3 expression level in Bax deficient human HeLa cells at 0.6 to 1.2 uM incubated for 24 hrs by Western blot analysis; format: functional, cell-based; settings: dose 0.6-1.2 µM
# HeLa [13] = test: Induction of autophagolysosome formation in human HeLa cells transfected with mRFP-GFP-LC3 plasmid assessed as increase in ratio of mRFP to GFP puncta at 0.4 to 0.8 uM incubated for 24 hrs; format: functional, cell-based; settings: dose 0.4-0.8 µM
# Ca-Ski [14] = test: Effect on cleaved PARP expression level in p53 deficient human Ca Ski cells at 0.5 to 1 uM incubated for 24 hrs by Western blot analysis; format: functional, cell-based; settings: dose 0.5-1 µM
# Ca-Ski [15] = test: Induction of apoptosis in human Ca Ski cells assessed as early apoptotic cells at 0.5 uM preincubated with Z-VAD-FMK for 1 hrs followed by compound addition and measured after 24 hrs by Annexin V-FITC/PI staining based flow cytometric analysis (reference value: 2.91 %); format: functional
# Ca-Ski [16] = test: Induction of apoptosis in human Ca Ski cells assessed as viable cells at 0.5 uM preincubated with Z-VAD-FMK for 1 hrs followed by compound addition and measured after 24 hrs by Annexin V-FITC/PI staining based flow cytometric analysis (reference value: 90.2 %); format: functional; settings: read-out: Activity
# Ca-Ski [17] = test: Effect on cleaved PARP expression level in Bax deficient human Ca Ski cells at 0.5 to 1 uM incubated for 24 hrs by Western blot analysis; format: functional, cell-based; settings: dose 0.5-1 µM
# Ca-Ski [18] = test: Induction of ferroptosis in human Ca Ski cells assessed as increase in lipid ROS level by measuring rightward shift in fluorescence intensity at 0.5 uM measured after 24 hrs by C11-BODIPY-581/591 staining based flow cytometric analysis; format: functional, cell-based
# HeLa [19] = test: Induction of autophagy in ATG7 deficient human HeLa cells assessed as increase in LC3-II expression at 0.6 to 1.2 uM incubated for 24 hrs by Western blot analysis; format: functional, cell-based; settings: dose 0.6-1.2 µM
# HeLa [20] = test: Antitumor activity against human HeLa cells xenografted in female BALB/c mouse assessed as reduction in tumor weight at 8 mg/kg administered every four days and measured after 26 days relative to control; format: functional; design: scale not given: the % may be the effect or the level left; settings: time 26 day
# Ca-Ski [21] = test: Antiproliferative activity against ATG5 deficient human Ca Ski cells assessed as inhibition of cell viability incubated for 24 hrs by CCK8 assay; format: functional, cell-based
# HeLa [22] = test: Effect on cleaved caspase 3 expression level in p53 deficient human HeLa cells at 0.6 to 1.2 uM incubated for 24 hrs by Western blot analysis; format: functional, cell-based; settings: dose 0.6-1.2 µM
# Ca-Ski [23] = test: Induction of apoptosis in human Ca Ski cells assessed as late apoptotic cells at 0.5 uM preincubated with Z-VAD-FMK for 1 hrs followed by compound addition and measured after 24 hrs by Annexin V-FITC/PI staining based flow cytometric analysis (reference value: 5.30 %); format: functional
# HeLa [24] = test: Induction of apoptosis in human HeLa cells assessed as viable cells at 1.2 uM preincubated with Z-VAD-FMK for 1 hrs followed by compound addition and measured after 24 hrs by Annexin V-FITC/PI staining based flow cytometric analysis (reference value: 95.8 %); format: functional; settings: read-out: Activity
# HeLa [25] = test: Effect on caspase 3 expression level in p53 deficient human HeLa cells at 0.6 to 1.2 uM incubated for 24 hrs by Western blot analysis; format: functional, cell-based; settings: dose 0.6-1.2 µM
# HeLa [26] = test: Effect on cleaved PARP expression level in p53 deficient human HeLa cells at 0.6 to 1.2 uM incubated for 24 hrs by Western blot analysis; format: functional, cell-based; settings: dose 0.6-1.2 µM
# [27] = Toxicity in female BALB/c mouse xenografted with human HeLa cells assessed as effect on body weight at 4 to 8 mg/kg administered every four days and measured after 26 days; format: organism-based; settings: in vivo, 624 h, dose 4-8 mg/kg, time 26 day
# SiHa = test: Induction of morphological changes in human SiHa cells assessed as increase in appearance of round cells at 0.5 to 2 uM by microphotographic analysis; format: functional, cell-based; settings: dose 0.5-2 µM
# Ca-Ski [28] = test: Induction of apoptosis in human Ca Ski cells assessed as early apoptotic cells at 0.5 uM incubated for 24 hrs by Annexin V-FITC/PI staining based flow cytometric analysis (reference value: 4.76 %); format: functional
# HeLa [29] = test: Inhibition of colony formation in human HeLa cells assessed as reduction in colony forming unit count at 0.15 to 0.6 uM incubated for 24 hrs by crystal violet staining based analysis; format: functional, cell-based; settings: dose 0.15-0.6 µM
# Ca-Ski [30] = test: Effect on caspase 3 expression level in human Ca Ski cells at 0.25 to 1 uM incubated for 24 hrs by Western blot analysis; format: functional, cell-based; settings: dose 0.25-1 µM
# HeLa [31] = test: Effect on TRFC protein expression level in human HeLa cells at 0.6 uM incubated for 24 hrs by Western blot analysis; format: functional, cell-based
# HepG2 = test: Antiproliferative activity against human HepG2 cells assessed as reduction in cell optical density incubated for 48 hrs by MTT assay; format: functional, cell-based; settings: HepG2, 48 h
smiles,measurement,setting,value
COc1cccc(Nc2ccnc3cc(OCCCCCOc4ccc5c(Nc6cccc(OC)c6)ccnc5c4)ccc23)c1,Activity,HeLa [1],Active
same,IC50,Ca-Ski [2],0.872 µM
same,Activity,[3],Non-toxic
same,Activity,Ca-Ski [4],Active
same,viability at 0.6 µM,HeLa [5],94.3%
same,Activity,[6],Non-toxic
same,Activity,Ca-Ski [7],inactive
same,Activity,C-33-A,Active
same,Activity,HeLa [8],Active
same,Activity,HeLa [9],inactive
same,Activity,HeLa [10],inactive
same,Activity,Ca-Ski [11],1.4%
same,Activity,HeLa [12],inactive
same,Activity,HeLa [13],Active
same,Activity,Ca-Ski [14],inactive
same,Activity,Ca-Ski [15],7.65%
same,viability at 0.5 µM,Ca-Ski [16],73.7%
same,Activity,Ca-Ski [17],inactive
same,Activity,Ca-Ski [18],inactive
same,Activity,HeLa [19],inactive
same,Activity,HeLa [20],81.76%
same,IC50,Ca-Ski [21],1.58 µM
same,Activity,HeLa [22],inactive
same,Activity,Ca-Ski [23],17.3%
same,viability at 1.2 µM,HeLa [24],93.6%
same,Activity,HeLa [25],inactive
same,Activity,HeLa [26],inactive
same,Activity,[27],Non-toxic
same,Activity,SiHa,Active
same,Activity,Ca-Ski [28],8.01%
same,inhibition,HeLa [29],Active
same,Activity,Ca-Ski [30],inactive
same,Activity,HeLa [31],inactive
same,IC50,HepG2,31.5 µM

# — ChEMBL document CHEMBL6115007, “Synthesis and in vitro and in vivo evaluation of novel bivalent quinolines as antitumor agents via targeting autophagy in cervical cancer” (Eur J Med Chem, 2025)
